Blank lines part the entries; values can stand above or below the compound they belong to.
Columns and labels:
HSPA2 = biological target: T1, HSPA2 (Homo sapiens, UniProt P54652); assay: FP peptide binding assay, HSPA2 SBD; details: 1 μM HSP70 SBD, 10 nM fluorescent peptide, read-out: A2 IC50
T1 construct: His6 (N, cleaved yes); made in house; host or cells: E. coli (Codon plus)

HSPA6 = biological target: T2, HSPA6 (Homo sapiens, UniProt P17066); assay: FP peptide binding assay, HSPA6 SBD; details: 1 μM HSP70 SBD, 10 nM fluorescent peptide, read-out: A6 IC50
T2 construct: His6 (N, cleaved yes); made in house; host or cells: E. coli (Codon plus)

HSPA9 = biological target: T3, HSPA9 (Homo sapiens, UniProt P38646); assay: FP peptide binding assay, HSPA9 SBD; details: 1 μM HSP70 SBD, 10 nM fluorescent peptide, read-out: A9 IC50
T3 construct: His6 (N, cleaved yes); made in house; host or cells: E. coli (Codon plus)
T3 sequence (P38646 442-679 limits assumed): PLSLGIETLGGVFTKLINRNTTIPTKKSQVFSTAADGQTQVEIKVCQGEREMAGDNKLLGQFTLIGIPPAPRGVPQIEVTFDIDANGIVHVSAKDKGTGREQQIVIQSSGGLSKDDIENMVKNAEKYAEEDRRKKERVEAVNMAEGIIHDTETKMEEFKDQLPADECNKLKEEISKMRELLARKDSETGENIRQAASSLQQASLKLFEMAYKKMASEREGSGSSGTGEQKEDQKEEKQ

HSA = biological target: T4, HSA (Homo sapiens, UniProt P02768); assay: Serum binding assay (dansylamide and BD140 probes); type: in vitro ADME; details: 50 μM compound, 20 μM HSA
T4 construct: Each sample contained 20 μM HSA in PBS at pH 7.4; from tissue; host or cells: human serum

60 cancer cell lines = assay: NCI-60 human tumor cell line screen; type: cell-based; details: fixed concentration of 10 μM (FIG. 8)
cancer cell lines = assay: ZIP synergy with CB5083, growth inhibition; type: cell-based; details: combination of CB5083 and 8 (FIG. 9A)
U251 glioblastoma cells = assay: Cellular synergy, U251 growth rate (incucyte confluence); type: cell-based; details: 10 μM of 8 (FIG. 12)
HSPA1A [1] = biological target: T5, HSPA1A (Homo sapiens, UniProt P0DMV8); assay: FP peptide binding assay, HSPA1A SBD; parameters: His6 (N, cleaved yes); made in house; host or cells: E. coli (Codon plus); details: 1 μM HSP70 SBD, 10 nM fluorescent peptide, read-out: A1A IC50
Target sequence in this assay (P0DMV8 394-509 limits assumed): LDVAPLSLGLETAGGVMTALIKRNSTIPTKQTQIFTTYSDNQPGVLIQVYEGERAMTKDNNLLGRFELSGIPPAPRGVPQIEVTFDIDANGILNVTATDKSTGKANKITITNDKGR

HSPA8 [2] = biological target: T6, HSPA8 (Homo sapiens, UniProt P11142); assay: FP peptide binding assay, HSPA8 SBD; parameters: His6 (N, cleaved yes); made in house; host or cells: E. coli (Codon plus); details: 1 μM HSP70 SBD, 10 nM fluorescent peptide, read-out: A8 IC50
Target sequence in this assay (P11142 394-509 limits assumed): as the sequence (P0DMV8 394-509 limits assumed) above, with A4T, L10I, A19V, S25T, I34T, R65K, S69T, T96S, T98V, A105E counted along it

HSPA5 = HSPA5 (Homo sapiens, UniProt P11021); assay: FP peptide binding assay, HSPA5 (HSPA5-NRLLLTG interaction); parameters: His6 (N, cleaved yes); made in house; host or cells: E. coli (Codon plus); details: FP, 1 μM HSP70 SBD, 10 nM fluorescent peptide; read-out: A5 IC50
[3] = Solubility (comparison in words); type: physicochemical
[4] = biological target: T7, HspA5 substrate binding domain (Homo sapiens, UniProt P11021); assay: 15N-HSQC NMR of HspA5 substrate binding domain; details: FIG. 11
T7 construct: HspA5SBD); His6-Smt3 (N, cleaved yes); made in house; host or cells: E. coli BL21-Codon+

[5] = tested on: canonical human HSP70 isoforms; assay: FP binding of fluorescent peptides to HSP70 substrate binding domains; details: FIG. 4A
HSPA1A [6] = biological target: T5, HSPA1A; details: read-out: NRLLLTG affinity for HSPA1A; reported in the literature; cited from earlier work
Target sequence in this assay (P0DMV8 whole entry): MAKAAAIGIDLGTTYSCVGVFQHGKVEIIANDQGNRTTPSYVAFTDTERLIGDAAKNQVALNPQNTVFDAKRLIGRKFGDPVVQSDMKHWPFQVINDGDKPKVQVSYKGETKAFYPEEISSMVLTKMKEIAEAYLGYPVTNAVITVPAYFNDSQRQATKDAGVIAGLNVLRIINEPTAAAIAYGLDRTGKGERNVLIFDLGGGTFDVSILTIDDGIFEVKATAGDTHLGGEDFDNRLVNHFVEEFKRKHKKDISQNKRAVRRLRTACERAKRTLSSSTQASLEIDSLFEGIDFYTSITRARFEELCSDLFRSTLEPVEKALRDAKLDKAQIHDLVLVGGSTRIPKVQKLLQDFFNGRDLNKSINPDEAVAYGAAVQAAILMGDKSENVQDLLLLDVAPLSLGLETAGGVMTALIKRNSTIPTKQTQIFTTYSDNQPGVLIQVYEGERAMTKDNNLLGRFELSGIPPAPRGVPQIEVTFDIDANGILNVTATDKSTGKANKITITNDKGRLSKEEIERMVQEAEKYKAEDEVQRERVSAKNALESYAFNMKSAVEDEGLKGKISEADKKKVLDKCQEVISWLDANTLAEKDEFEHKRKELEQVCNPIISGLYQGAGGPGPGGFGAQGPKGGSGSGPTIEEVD

HSPA8 [7] = biological target: T6, HSPA8; details: read-out: NRLLLTG affinity for HSPA8; reported in the literature; cited from earlier work
Target sequence in this assay (P11142 whole entry): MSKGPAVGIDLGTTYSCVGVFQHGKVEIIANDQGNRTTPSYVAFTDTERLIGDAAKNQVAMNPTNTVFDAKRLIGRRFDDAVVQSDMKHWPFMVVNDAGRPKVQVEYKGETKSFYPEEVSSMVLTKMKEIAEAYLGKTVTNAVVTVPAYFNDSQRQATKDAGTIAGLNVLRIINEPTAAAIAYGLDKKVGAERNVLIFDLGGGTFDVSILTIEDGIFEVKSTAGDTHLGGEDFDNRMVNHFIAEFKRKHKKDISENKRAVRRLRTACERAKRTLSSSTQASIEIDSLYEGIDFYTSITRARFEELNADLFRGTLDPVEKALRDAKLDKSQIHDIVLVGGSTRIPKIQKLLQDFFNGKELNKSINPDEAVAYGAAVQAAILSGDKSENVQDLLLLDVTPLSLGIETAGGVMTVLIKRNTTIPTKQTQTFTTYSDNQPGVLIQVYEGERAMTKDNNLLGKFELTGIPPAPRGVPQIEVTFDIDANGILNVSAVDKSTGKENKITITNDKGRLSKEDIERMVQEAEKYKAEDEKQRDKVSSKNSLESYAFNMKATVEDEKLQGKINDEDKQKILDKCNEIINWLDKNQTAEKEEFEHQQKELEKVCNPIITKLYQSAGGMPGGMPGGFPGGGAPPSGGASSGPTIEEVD

Sequence of HSPA5 (P11021 419-632): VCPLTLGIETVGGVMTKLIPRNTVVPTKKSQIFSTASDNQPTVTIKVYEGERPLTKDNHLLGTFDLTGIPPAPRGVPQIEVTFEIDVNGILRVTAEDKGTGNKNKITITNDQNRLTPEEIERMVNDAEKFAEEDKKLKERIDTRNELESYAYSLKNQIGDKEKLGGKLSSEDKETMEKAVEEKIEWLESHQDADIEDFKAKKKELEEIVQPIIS
T4 sequence (P02768 25-609): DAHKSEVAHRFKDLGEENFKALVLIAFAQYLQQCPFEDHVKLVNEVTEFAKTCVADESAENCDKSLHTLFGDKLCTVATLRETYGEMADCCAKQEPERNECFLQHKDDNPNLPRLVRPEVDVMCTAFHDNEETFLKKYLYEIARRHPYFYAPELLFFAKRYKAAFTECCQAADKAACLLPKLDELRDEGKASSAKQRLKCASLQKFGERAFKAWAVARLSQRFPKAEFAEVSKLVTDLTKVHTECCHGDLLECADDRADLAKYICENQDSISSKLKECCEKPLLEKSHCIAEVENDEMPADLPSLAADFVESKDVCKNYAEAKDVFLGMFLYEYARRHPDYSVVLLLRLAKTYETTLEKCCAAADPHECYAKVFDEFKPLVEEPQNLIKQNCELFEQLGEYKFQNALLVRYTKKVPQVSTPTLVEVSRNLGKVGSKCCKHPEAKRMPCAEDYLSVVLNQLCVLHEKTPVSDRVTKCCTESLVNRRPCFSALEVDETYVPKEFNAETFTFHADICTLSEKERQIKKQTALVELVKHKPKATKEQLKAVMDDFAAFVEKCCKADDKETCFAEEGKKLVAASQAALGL
T2 sequence (P17066 396-511 limits assumed): as the sequence (P0DMV8 394-509 limits assumed) above, with A19T, K22Q, S25A, I34T, L46F, N94S, K100R counted along it
T1 sequence (P54652 397-512 limits assumed): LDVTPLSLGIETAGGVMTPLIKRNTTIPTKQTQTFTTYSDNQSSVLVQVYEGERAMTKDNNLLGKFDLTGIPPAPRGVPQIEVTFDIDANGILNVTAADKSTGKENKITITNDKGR
T7 sequence (P11021 418-635): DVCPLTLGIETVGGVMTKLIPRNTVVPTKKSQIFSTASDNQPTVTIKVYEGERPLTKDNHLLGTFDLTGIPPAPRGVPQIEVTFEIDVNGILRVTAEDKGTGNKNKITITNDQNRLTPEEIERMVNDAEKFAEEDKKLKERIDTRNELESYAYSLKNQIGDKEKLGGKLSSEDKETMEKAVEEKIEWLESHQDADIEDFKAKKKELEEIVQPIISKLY

Compound: CC(C)[C@H](NC(=O)c1cc2ccccc2[nH]1)C(=O)Nc1nccs1 [Compound 8]
IC50 (HSPA2): 13.9 µM
IC50 (HSPA6): > 50 µM
IC50 (HSPA9): 4.3 µM
Serum Binding (HSA): <10%
growth inhibition in NCI-60 panel (60 cancer cell lines): did not indicate significant decrease in growth rates
ZIP synergy with p97 inhibitor CB5083 (cancer cell lines): growth inhibition was observed when both compounds are present a concentration where neither showed activity independently
growth inhibition with ER stress inducers MG132, thapsigargin, and CB5082 (U251 glioblastoma cells): inhibits growth of these cells in a synergistic manner
IC50 (HSPA1A [1]): > 50 µM
IC50 (HSPA8 [2]): 43.5 µM

Compound: FITC-NR: Fluorescent peptide (FITC-NRLLLTG) used as FP probe
binding of fluorescent peptide to HSP70 isoforms [5]: only bound tightly to HSPA5 and HSPA9

Compound: NRLLLTG
Kd (HSPA1A [6]): 10 µM
Kd (HSPA8 [7]): 10 µM

Compound: P1: fluorescent peptide FAM-ALLLSAPRR that binds human HSP70 isoforms [Compound P1]
binding of fluorescent peptide to HSP70 isoforms [5]: bound with high affinity to all isoforms except HSPA1L

Continued, in another order:

IC50 (HSPA5): > 50 µM
Compound: CC(C)[C@H](NC(=O)c1cccs1)C(=O)O [Compound 17, (thiophene-2-carbonyl)-L-valine]

solubility (comparison) [3]: much more soluble than compound 8
IC50 (HSPA5): 0.43 ± 0.09 µM
Compound: CC(=O)c1ccc2[nH]c(C(=O)N[C@H](C(=O)Nc3nccs3)C(C)C)cc2c1 [Compound 24, (S)-5-acetyl-N-(3-methyl-1-oxo-1-(thiazol-2-ylamino)butan-2-yl)-1H-indole-2-carboxamide]
binding to HSPA5 SBD by HSQC [4]: binds to HSPA5 in a manner that stabilizes its structure

— patent US20230091297A1, “INHIBITORS OF HSP70 PROTEINS” (ARIZONA BOARD OF REGENTS ON BEHALF OF THE UNIVERSITY OF …, priority 2020, published 2023)
